Source: ChEMBL document CHEMBL1129049, “Structure-activity analysis of anandamide analogs: relationship to a cannabinoid pharmacophore” (1996)

Columns and labels:
[1] = species: Mus musculus; assay: Effective dose required to increase tail-flick latency in mice; type: functional
[2] = species: Mus musculus; assay: Effective dose required to inhibit spontaneous locomotor activity in mice; type: functional

Structure (SMILES): CCCCC/C=C\C/C=C\C/C=C\C/C=C\CCCC(=O)NCCOc1ccccc1
- ED50 [1]: 74.1 µmol/kg
- ED50 [2]: 23 µmol/kg

Structure (SMILES): CCCCC/C=C\C/C=C\C/C=C\C/C=C\CCCC(=O)NCCOC
- ED50 [2]: 186 µmol/kg

Structure (SMILES): CCCCC/C=C\C/C=C\C/C=C\C/C=C\CCCC(=O)NCCCO
- ED50 [1]: 61.4 µmol/kg
- ED50 [2]: 43.7 µmol/kg

Structure (SMILES): CCCCC/C=C\C/C=C\C/C=C\C/C=C\CCCC(=O)NCCF
- ED50 [1]: 190 µmol/kg
- ED50 [2]: 57.2 µmol/kg

Structure (SMILES): CCCCC/C=C\C/C=C\C/C=C\C/C=C\CCCC(=O)NCCO [ANANDAMIDE]
- ED50 [1]: 17.4 µmol/kg
- ED50 [2]: 50.3 µmol/kg

Structure (SMILES): CCCCC/C=C\C/C=C\C/C=C\C/C=C\CCCC(=O)N1CCOCC1
- ED50 [1]: 25.4 µmol/kg
- ED50 [2]: 20.7 µmol/kg

Structure (SMILES): CCCCC/C=C\C/C=C\C/C=C\C/C=C\CCCC(=O)NCCCCCO
- ED50 [1]: 72.9 µmol/kg
- ED50 [2]: 49.5 µmol/kg

Structure (SMILES): CCCCC/C=C\C/C=C\C/C=C\C/C=C\CCC(C)(C)C(=O)NCCO
- ED50 [1]: 49.6 µmol/kg
- ED50 [2]: 30.5 µmol/kg
